In brackets after ≈: the same amount, converted by molar mass. Like-named read-outs stand apart in the source and are kept apart here.
Assays:
[1] = tested on: E. coli strains with a compromised outer membrane (yhjD*ΔkdtA) or with an efflux pump deletion (ΔtolC); conditions: cited from earlier work
WT K. pneumoniae = conditions: cited from earlier work
[2] = tested on: K. pneumoniae (ATCC 10031); assay: MIC assay (broth microdilution), K. pneumoniae; format: cell-based; conditions: Klebsiella pneumoniae, ATCC10031
Protocol: (§1) The MIC assay protocol was adapted from the broth microdilution methods described by the National Committee for Clinical Laboratory Standards using 96-well plates as described previously. In brief, overnight bacterial cultures were diluted to an OD600 of 0.006 in cation-adjusted Mueller-Hinton medium containing 7% DMSO and incubated at 37° C. for 22 h in the presence of varying concentrations of inhibitors. Following overnight incubation, each well is treated with 10 μL of 3-(4,5-dimethylthiazol-2-yl)-2,5-diphenyltetrazolium bromide (MTT, 5 mg/mL) for 3 h. Finally, the culture is solubilized by addition of 2-propanol, and the results are read by taking the difference of the UV reading at both 570 and 690 nm. MIC values were reported as the lowest compound concentration that inhibited bacterial growth. The baseline for inhibited cell growth was determined to be <4× the average control reading due to the baseline optical density of the initial starting bacterial culture.

[3] = molecular target: T1, K. pneumoniae LpxH (KpLpxH) (Klebsiella pneumoniae subsp. pneumoniae (strain ATCC 700721 / MGH 78578), UniProt A6T5R0); assay: LpxE-coupled malachite green LpxH activity assay (KpLpxH inhibition); format: biochemical; conditions: for remaining activity at 0.1 µM / inhibition at 0.1 µM: 0.1 μM inhibitor; for remaining activity at 0.1 µM: normalized against KpLpxH activity in 10% DMSO, read-out: Percentage Activity of KpLpxH (vi/v0); for inhibition at 0.1 µM: read-out: Percentage Inhibition of KpLpxH; for IC50: Table 5, read-out: IC50: Average
Protocol: Evaluation of LpxH inhibition by analogs: After completing the synthesis of sulfonyl piperazine compounds with various forms of linkers, the KpLpxH inhibition was biochemically characterized by these analogs at 0.1 μM using the nonradioactive, colorimetric malachite green assay that we had previously reported. […] Such an enhanced potency requires the presence of the hydroxamate group, as its substitution with a carboxylate group in compound 7 reduced the compound activity (vi/v0=30±6%).
The LpxE-coupled LpxH activity assay was conducted as described previously using the GB1-K. pneumoniae LpxH-His10 fusion protein. Briefly, two reaction mixtures were prepared. Mixture 1 contains 20 mM Tris-HCl (pH 8.0), 0.5 mg/mL BSA, 0.02% Triton X-100, 1 mM MnCl2, 1 mM DTT, 10% DMSO, and 200 µM substrate (UDP-DAGn), and mixture 2 is comprised of the same buffer, but instead of substrate, contains both LpxH (20 ng/ml) and 2× inhibitor. These mixtures were then pre-incubated at 37° C. for 10 min. To initiate the reaction, an equal volume of the LpxH mixture (mixture 2) was added to the substrate mixture (mixture 1) at 37° C. The final reaction solution contains 100 μM substrate, 10 ng/ml enzyme, and 1× inhibitor. At the desired reaction time points, an aliquot of 20 μL reaction mixture was removed and added to a well in 96-well half-area plate containing 5 mM EDTA (final concentration) to quench the LpxH reaction. Purified Aquifex aeolicus LpxE was then added to a final concentration of 5 μg/mL. The plate was incubated at 37° C. for 30 min followed by addition of formic acid to a final concentration of 3.75 M to quench the LpxE reaction. The malachite green reagent (Sigma Aldrich, catalog MAK307) was diluted 5-fold into the solutions, and the plate was incubated for 30 min at room temperature before the absorbance at 620 nm was measured. All measurements were done in triplicates, and standard error (S.E.) was calculated.

E. coli W3110 = assay: MIC assay (broth microdilution), E. coli; format: cell-based; conditions: Escherichia coli, Table 4
Protocol: as §1

[4] = molecular target: T1, K. pneumoniae LpxH (KpLpxH); conditions: previously reported value for 2; read-out: KI of KpLpxH inhibition (reported value); cited from earlier work
[5] = K. pneumoniae (ATCC 10031), in vitro, read-out: MIC
[6] = Table 4, read-out: MIC - K. pneumoniae (ATCC 10031)

**Q.** For `CC(=O)N1CCc2cc(S(=O)(=O)N3CCN(c4cccc(C(F)(F)F)c4)CC3)ccc21` [AZ1, reference compound], which antibiotic activity [1] is on record?
**A.** weak antibiotic activity

**Q.** What about the antibiotic activity (WT K. pneumoniae) of the same molecule?
**A.** weak antibiotic activity

**Q.** And the MIC [2, 5]?
**A.** > 64 µg/mL

**Q.** What about the MIC [2, 6] of the same molecule?
**A.** > 64 µg/mL

**Q.** What about the remaining activity at 0.1 µM [3] of the same molecule?
**A.** 78%

**Q.** What about the inhibition at 0.1 µM [3] of the same molecule?
**A.** 22%

**Q.** Which results are given for `CN(c1ccccc1C(=O)Nc1ccc(S(=O)(=O)N2CCN(c3cc(C(F)(F)F)cc(Cl)n3)CC2)cc1)S(C)(=O)=O` [JH-LPH-107]?
**A.** MIC (E. coli W3110): 1 µg/mL (≈ 1.58 µM); MIC [2, 6]: 0.04 µg/mL (≈ 0.0633 µM)

**Q.** Which MIC (E. coli W3110) does the source give for `CN(c1ccccc1C(=O)N1CCc2cc(S(=O)(=O)N3CCN(c4cc(C(F)(F)F)cc(Cl)n4)CC3)ccc21)S(C)(=O)=O` [JH-LPH-106] here?
**A.** 1.7 µg/mL (≈ 2.58 µM)

**Q.** Which Ki [4] does the source give for `CC(=O)N1CCc2cc(S(=O)(=O)N3CCN(c4cc(Cl)cc(C(F)(F)F)c4)CC3)ccc21` [JH-LPH-33] here?
**A.** 10 nM

**Q.** And the MIC [2, 5]?
**A.** 0.83 µg/mL (≈ 1.7 µM)

**Q.** What about the MIC [2, 6] of the same molecule?
**A.** 0.83 µg/mL (≈ 1.7 µM)

**Q.** What about the remaining activity at 0.1 µM [3] of the same molecule?
**A.** 21%

**Q.** What about the inhibition at 0.1 µM [3] of the same molecule?
**A.** 79%

**Q.** And the IC50 [3]?
**A.** 104 nM

**Q.** With `CN(c1ccccc1C(=O)Nc1ccc(S(=O)(=O)N2CCN(c3cc(Cl)cc(Cl)c3)CC2)cc1)S(C)(=O)=O` [JH-LPH-105] as the molecule, how does the MIC (E. coli W3110) read?
**A.** 2 µg/mL (≈ 3.35 µM)

**Q.** What about the MIC [2, 6] of the same molecule?
**A.** 0.3 µg/mL (≈ 0.502 µM)

**Q.** With `O=C(CCCCCNC(=O)Nc1ccc(S(=O)(=O)N2CCN(c3cc(C(F)(F)F)cc(Cl)n3)CC2)cc1)NO` [JH-LPH-104] as the molecule, how does the MIC (E. coli W3110) read?
**A.** 16 µg/mL (≈ 27 µM)

**Q.** What about the MIC [2, 6] of the same molecule?
**A.** 1 µg/mL (≈ 1.69 µM)

**Q.** And the IC50 [3]?
**A.** 0.23 nM

**Q.** For `NC(=O)N1CCc2cc(S(=O)(=O)N3CCN(c4cc(Cl)cc(C(F)(F)F)c4)CC3)ccc21` [JH-LPH-73], which MIC [2, 6] is on record?
**A.** 0.67 µg/mL (≈ 1.37 µM)

**Q.** And the IC50 [3]?
**A.** 37 nM

**Q.** Which MIC [2, 6] does the source give for `CC(=O)N1CCc2cc(S(=O)(=O)N3CCN(c4cc(C)cc(C(F)(F)F)c4)CC3)ccc21` [JH-LPH-49] here?
**A.** 18.7 µg/mL (≈ 39.9 µM)

**Q.** What about the IC50 [3] of the same molecule?
**A.** 152 nM
